These results are taken from patent publication US9777017B2, “Tricyclic fused thiophene derivatives as JAK inhibitors” (Incyte Corporation, priority 2012, dated 2017).

Holding throughout (type): biochemical
Test [1] addresses human JAK1 (Homo sapiens, UniProt P23458). Briefly: In vitro JAK kinase assay (HTRF, phosphorylation of a biotinylated peptide), JAK1. Particulars: 1 mM ATP. The method, boiled down:
(§1)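 Baculovirus-expressed catalytic domains (JAK1 a.a. 837-1142, JAK2 a.a. 828-1132) phosphorylate 500 nM biotinylated peptide at 1 mM ATP, Tris pH 7.8, 1 h at room temperature. EDTA stop and HTRF detection with Eu-Py20/SA-APC; IC50 values derived.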

For test [2], the system named is human JAK1. The description is as above. The following applies: ratio of IC50s, 1 mM ATP. In outline: as §1
The target of the next test is human JAK2 (Homo sapiens (Human), UniProt O60674). Briefly: In vitro JAK kinase assay (HTRF, phosphorylation of a biotinylated peptide), JAK2. On the set-up: key to JAK2 IC50 (nM): +indicates an IC50 of ≦100 nM; ++indicates an IC50 of ≦1000 nM; +++indicates an IC50 of ≦2000 nM; ++++indicates an IC50 of >2000 nM; +++++indicates that the IC50 was greater than the highest concentration tested. The following applies: 1 mM ATP. In outline:
as §1

human JAK2, sequence (O60674 828-1132): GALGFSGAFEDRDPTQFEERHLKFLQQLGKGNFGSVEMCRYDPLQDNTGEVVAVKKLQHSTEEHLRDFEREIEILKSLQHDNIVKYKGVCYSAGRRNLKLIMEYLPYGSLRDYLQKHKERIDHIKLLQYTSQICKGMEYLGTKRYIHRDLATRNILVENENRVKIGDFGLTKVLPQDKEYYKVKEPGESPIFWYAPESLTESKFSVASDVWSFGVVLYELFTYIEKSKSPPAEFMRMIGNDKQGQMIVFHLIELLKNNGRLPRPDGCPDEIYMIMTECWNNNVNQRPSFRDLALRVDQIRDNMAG

On to `N#CC[C@H]1CC[C@H](n2c(CO)nc3cnc4ccsc4c32)CO1` [Example 91, {(2R,5S)-5-[2-(Hydroxymethyl)-1H-imidazo[4,5-b]thieno[3,2-b]pyridin-1-yl]tetrahydro-2H-pyran-2-yl}acetonitrile], for which the IC50 against human JAK1 [1] was no more than 100 nM; at human JAK2, no more than 1000 nM. For the same compound, the JAK2/JAK1 in the test with human JAK1 [2] was greater than 10.
Consider “((1R,2R,4S)-2-Hydroxy-4-{2-[(1R)-1-hydroxyethyl]-1H-imidazo[4,5-d]thieno[3,2-b]pyridin-1-yl}cyclohexyl)acetonitrile and ((1S,2S,4R)-2-hydroxy-4-{2-[(1R)-1-hydroxyethyl]-1H-imidazo[4,5-d]thieno[3,2-b]pyridin-1-yl}cyclohexyl)acetonitrile [36 (first peak)]”, for which the IC50 was no more than 100 nM at human JAK1 [1] and greater than 2000 nM at human JAK2. Also, the JAK2/JAK1 with human JAK1 [2] was greater than 10.
For “((1R,2R,4S)-2-Hydroxy-4-{2-[(1R)-1-hydroxyethyl]-1H-imidazo[4,5-d]thieno[3,2-b]pyridin-1-yl}cyclohexyl)acetonitrile and ((1S,2S,4R)-2-hydroxy-4-{2-[(1R)-1-hydroxyethyl]-1H-imidazo[4,5-d]thieno[3,2-b]pyridin-1-yl}cyclohexyl)acetonitrile [36 (second peak)]” the same measures were no more than 100 nM, no more than 1000 nM and greater than 10.
Regarding “((1R,2S,4S)-2-Hydroxy-4-{2-[(1R)-1-hydroxyethyl]-1H-imidazo[4,5-d]thieno[3,2-b]pyridin-1-yl}cyclohexyl)acetonitrile trifluoacetate and ((1S,2R,4R)-2-hydroxy-4-{2-[(1R)-1-hydroxyethyl]-1H-imidazo[4,5-d]thieno[3,2-b]pyridin-1-yl}cyclohexyl)acetonitrile trifluoacetate [37 (first peak)]”, at human JAK1 [1], the IC50 is no more than 1000 nM. The JAK2/JAK1 with human JAK1 [2] is recorded as greater than 10. The “JAK2 IC50 (nM)” value on human JAK2 is “+++++”.
As to “((1R,2S,4S)-2-Hydroxy-4-{2-[(1R)-1-hydroxyethyl]-1H-imidazo[4,5-d]thieno[3,2-b]pyridin-1-yl}cyclohexyl)acetonitrile trifluoacetate and ((1S,2R,4R)-2-hydroxy-4-{2-[(1R)-1-hydroxyethyl]-1H-imidazo[4,5-d]thieno[3,2-b]pyridin-1-yl}cyclohexyl)acetonitrile trifluoacetate [37 (second peak)]”, the 50% inhibitory concentration (IC50) at human JAK1 [1] is no more than 100 nM; against human JAK2, no more than 1000 nM. The JAK2/JAK1 with human JAK1 [2] is greater than 10.
On to “[(1R,2S,4S)-4-(2-Ethyl-1H-imidazo[4,5-d]thieno[3,2-b]pyridin-1-yl)-2-hydroxycyclohexyl]acetonitrile and [(1S,2R,4R)-4-(2-ethyl-1H-imidazo[4,5-d]thieno[3,2-b]pyridin-1-yl)-2-hydroxycyclohexyl]acetonitrile [40 (first peak)]”, for which the results for the IC50 at human JAK1 [1] and against human JAK2 were no more than 100 nM and no more than 1000 nM, respectively. The JAK2/JAK1 in the test on human JAK1 [2] is reported as greater than 10.
The matching figures for “[(1R,2S,4S)-4-(2-Methyl-1H-imidazo[4,5-d]thieno[3,2-b]pyridin-1-yl)-2-hydroxycyclohexyl]acetonitrile and [(1S,2R,4R)-4-(2-methyl-1H-imidazo[4,5-d]thieno[3,2-b]pyridin-1-yl)-2-hydroxycyclohexyl]acetonitrile [41 (first peak)]”: no more than 100 nM, no more than 1000 nM and greater than 10.
